Reference: PMC5869712 (Scientific Reports, 2018)
Read-outs that look alike come from different tables or passages of the source.

What was measured:
IKKε = target: T1, IKKε (Homo sapiens, UniProt Q14164); assay: Eurofins Kinase Profiler panel; assay type: biochemical; conditions: read-out: % inhibition (1μM), DMSO control=100%, lower=stronger
T1 construct: purchased Eurofins KinaseProfiler (Eurofins Pharma Discovery Services UK, Dundee); JAK3 also ChemPartner

Fyn = target: T2, Fyn (Homo sapiens, UniProt P06241); assay: Eurofins Kinase Profiler panel; assay type: biochemical; conditions: read-out: % inhibition (1μM), DMSO control=100%, lower=stronger
T2 construct: purchased Eurofins Pharma Discovery Services UK Limited (Kinase Profiler screening platform)
T2 sequence (P06241 whole entry): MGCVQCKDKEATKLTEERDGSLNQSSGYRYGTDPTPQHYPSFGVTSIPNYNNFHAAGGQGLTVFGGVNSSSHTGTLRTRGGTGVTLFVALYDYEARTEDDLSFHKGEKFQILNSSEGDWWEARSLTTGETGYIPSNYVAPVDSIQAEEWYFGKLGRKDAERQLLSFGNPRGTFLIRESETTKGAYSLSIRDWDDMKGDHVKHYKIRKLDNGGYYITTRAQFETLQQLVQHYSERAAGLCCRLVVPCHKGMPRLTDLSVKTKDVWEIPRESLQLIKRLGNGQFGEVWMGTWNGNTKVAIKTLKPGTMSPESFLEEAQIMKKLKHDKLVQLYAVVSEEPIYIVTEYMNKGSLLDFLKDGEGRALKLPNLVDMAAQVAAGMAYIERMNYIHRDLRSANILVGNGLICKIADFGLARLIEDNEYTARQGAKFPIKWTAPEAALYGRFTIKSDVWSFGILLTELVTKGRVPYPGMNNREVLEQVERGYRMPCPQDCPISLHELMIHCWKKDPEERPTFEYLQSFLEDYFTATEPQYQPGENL

BLK = target: T3, BLK (Homo sapiens, UniProt P51451); assay: Cys-containing kinase family panel (EurofinsCerep); assay type: biochemical
T3 construct: EurofinsCerep (contract assay service)

JAK3 [1] = target: T4, JAK3 (Homo sapiens, UniProt P52333); assay: Reversibility assay (jump dilution); assay type: biochemical; conditions: jump dilution experiment
T4 construct: ChemPartner (contract assay service)
T4 sequence (P52333 1-1124): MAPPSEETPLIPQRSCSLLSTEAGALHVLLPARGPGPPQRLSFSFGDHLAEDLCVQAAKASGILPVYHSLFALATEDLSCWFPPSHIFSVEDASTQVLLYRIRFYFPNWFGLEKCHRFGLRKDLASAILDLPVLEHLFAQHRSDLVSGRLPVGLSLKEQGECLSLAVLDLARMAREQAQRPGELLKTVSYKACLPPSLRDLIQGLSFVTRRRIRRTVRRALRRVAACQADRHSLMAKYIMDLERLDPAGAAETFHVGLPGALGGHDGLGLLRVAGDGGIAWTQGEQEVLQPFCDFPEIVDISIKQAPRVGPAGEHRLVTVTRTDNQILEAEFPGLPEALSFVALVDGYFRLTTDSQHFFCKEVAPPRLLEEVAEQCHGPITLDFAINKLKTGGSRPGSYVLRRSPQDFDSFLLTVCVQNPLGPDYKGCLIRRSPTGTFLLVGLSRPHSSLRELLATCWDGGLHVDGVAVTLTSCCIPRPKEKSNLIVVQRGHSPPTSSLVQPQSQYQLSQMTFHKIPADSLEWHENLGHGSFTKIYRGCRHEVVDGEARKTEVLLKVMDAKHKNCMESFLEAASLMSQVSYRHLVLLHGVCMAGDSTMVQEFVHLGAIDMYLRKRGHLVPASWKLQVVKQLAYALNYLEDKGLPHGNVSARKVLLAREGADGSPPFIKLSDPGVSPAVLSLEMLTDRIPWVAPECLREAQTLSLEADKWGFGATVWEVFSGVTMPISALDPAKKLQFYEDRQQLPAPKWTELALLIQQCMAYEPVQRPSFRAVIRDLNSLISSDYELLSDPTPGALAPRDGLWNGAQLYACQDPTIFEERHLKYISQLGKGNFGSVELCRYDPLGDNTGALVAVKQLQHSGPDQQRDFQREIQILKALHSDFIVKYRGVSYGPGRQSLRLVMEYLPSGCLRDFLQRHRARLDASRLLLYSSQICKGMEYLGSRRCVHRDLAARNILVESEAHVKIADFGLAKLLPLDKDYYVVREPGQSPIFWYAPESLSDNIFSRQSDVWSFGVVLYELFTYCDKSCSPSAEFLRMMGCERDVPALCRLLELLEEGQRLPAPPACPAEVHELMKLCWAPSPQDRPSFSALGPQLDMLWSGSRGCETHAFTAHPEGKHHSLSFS
Procedure: This test trial of our compound RB1 was performed on a ChemPartner reversibility assay platform (ChemPartner; Shanghai; China). Jump dilution analysis is commonly used. The compound was tested in duplicate under 2 conditions, preincubation with enzyme and no preincubation. The assay protocol guide is commercially available from ChemPartner.
Supplementary Figure S5. […] RB1 with […]
with kinase buffer that contains peptide substrate, ATP and cofactors at the final concentration for reaction, and read conversion data for 20 times for 1 h on caliper.
(1 picture or pasted object on this page, not shown here)

[2] = system: IL-4-induced JAK/STAT6 phosphorylation in THP-1 cells (JAK1/JAK3); assay: STAT6 phosphorylation induced by IL-4 in THP-1 cells, Western blot; conditions: for IC50: Homo sapiens
FAK = target: T5, FAK (Homo sapiens, UniProt Q05397); assay: Eurofins Kinase Profiler panel; assay type: biochemical; conditions: read-out: % inhibition (1μM), DMSO control=100%, lower=stronger
T5 construct: Eurofins Pharma Discovery Services UK Limited (Kinase Profiler service)
T5 sequence (Q05397 whole entry): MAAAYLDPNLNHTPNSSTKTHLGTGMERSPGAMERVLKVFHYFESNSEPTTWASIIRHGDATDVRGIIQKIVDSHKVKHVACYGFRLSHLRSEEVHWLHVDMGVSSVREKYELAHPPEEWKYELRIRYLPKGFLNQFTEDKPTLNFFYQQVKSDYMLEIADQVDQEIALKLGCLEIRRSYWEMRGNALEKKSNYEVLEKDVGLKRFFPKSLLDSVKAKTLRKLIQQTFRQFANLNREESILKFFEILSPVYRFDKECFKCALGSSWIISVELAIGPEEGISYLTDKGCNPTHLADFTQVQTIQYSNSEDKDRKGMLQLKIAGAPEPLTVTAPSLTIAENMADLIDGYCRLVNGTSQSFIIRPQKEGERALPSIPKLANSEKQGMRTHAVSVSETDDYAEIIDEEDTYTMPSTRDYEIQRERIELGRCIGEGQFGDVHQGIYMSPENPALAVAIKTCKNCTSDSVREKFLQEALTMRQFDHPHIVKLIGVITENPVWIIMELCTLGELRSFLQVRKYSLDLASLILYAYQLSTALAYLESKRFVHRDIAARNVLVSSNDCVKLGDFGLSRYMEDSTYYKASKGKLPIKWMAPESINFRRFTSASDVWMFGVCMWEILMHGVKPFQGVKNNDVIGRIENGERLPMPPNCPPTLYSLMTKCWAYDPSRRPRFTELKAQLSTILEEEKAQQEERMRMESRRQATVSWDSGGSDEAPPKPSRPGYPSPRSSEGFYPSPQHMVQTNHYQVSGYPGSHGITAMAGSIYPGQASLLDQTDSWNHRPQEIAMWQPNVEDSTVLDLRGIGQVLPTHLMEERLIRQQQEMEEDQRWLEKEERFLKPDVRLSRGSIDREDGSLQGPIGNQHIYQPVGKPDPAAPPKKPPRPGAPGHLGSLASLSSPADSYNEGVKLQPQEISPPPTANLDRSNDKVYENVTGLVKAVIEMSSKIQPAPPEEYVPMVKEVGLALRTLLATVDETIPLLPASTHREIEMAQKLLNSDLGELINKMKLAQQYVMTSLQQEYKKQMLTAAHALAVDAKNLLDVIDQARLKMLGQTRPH

JNK1α1 = target: T6, JNK1α1 (Homo sapiens, UniProt P45983); assay: Eurofins Kinase Profiler panel; assay type: biochemical; conditions: read-out: % inhibition (1μM), DMSO control=100%, lower=stronger
T6 construct: purchased Eurofins KinaseProfiler (Eurofins Pharma Discovery Services UK, Dundee); JAK3 also ChemPartner
T6 sequence (P45983 1-384 isoform P45983-2): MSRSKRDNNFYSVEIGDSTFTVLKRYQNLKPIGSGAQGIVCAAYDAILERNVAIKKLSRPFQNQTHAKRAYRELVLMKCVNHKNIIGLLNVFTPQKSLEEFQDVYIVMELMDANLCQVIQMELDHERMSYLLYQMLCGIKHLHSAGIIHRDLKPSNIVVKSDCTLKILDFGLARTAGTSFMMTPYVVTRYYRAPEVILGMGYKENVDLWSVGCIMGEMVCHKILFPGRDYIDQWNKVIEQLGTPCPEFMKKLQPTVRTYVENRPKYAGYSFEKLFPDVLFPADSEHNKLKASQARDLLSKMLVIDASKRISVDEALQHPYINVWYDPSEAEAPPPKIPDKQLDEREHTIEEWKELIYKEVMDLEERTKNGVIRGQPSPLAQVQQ

GCK = target: T7, GCK (Homo sapiens, UniProt Q12851); assay: Eurofins Kinase Profiler panel; assay type: biochemical; conditions: read-out: % inhibition (1μM), DMSO control=100%, lower=stronger
T7 construct: purchased Eurofins Pharma Discovery Services UK Limited (Kinase Profiler screening platform)
T7 sequence (Q12851 whole entry): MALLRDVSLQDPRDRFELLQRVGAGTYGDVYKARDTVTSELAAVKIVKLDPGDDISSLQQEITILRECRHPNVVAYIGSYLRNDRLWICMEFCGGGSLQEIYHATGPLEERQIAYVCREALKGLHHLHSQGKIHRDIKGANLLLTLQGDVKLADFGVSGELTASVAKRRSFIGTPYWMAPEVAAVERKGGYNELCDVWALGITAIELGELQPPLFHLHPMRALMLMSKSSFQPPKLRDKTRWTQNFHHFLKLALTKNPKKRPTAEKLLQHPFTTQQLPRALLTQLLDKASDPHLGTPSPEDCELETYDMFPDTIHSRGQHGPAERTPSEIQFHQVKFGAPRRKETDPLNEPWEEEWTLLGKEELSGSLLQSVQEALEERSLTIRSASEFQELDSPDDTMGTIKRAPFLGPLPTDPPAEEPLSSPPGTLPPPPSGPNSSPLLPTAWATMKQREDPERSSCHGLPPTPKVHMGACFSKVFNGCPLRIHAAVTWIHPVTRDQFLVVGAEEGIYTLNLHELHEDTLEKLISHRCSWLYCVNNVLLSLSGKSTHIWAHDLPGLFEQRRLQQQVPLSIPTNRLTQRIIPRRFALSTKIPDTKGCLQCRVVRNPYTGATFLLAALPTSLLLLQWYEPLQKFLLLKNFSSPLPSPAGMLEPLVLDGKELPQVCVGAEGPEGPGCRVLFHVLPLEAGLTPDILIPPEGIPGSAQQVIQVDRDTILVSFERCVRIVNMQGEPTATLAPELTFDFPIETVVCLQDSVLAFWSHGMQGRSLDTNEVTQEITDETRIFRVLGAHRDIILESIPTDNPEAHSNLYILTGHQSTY

JAK3 [3] = target: T4, JAK3; assay: Eurofins Kinase Profiler panel; assay type: biochemical; conditions: read-out: % inhibition (1μM), DMSO control=100%, lower=stronger, text: residual kinase activity
BTK = target: T8, BTK (Homo sapiens, UniProt Q06187); assay: Cys-containing kinase family panel (EurofinsCerep); assay type: biochemical
T8 construct: EurofinsCerep (contract assay service)
T8 sequence (Q06187 whole entry): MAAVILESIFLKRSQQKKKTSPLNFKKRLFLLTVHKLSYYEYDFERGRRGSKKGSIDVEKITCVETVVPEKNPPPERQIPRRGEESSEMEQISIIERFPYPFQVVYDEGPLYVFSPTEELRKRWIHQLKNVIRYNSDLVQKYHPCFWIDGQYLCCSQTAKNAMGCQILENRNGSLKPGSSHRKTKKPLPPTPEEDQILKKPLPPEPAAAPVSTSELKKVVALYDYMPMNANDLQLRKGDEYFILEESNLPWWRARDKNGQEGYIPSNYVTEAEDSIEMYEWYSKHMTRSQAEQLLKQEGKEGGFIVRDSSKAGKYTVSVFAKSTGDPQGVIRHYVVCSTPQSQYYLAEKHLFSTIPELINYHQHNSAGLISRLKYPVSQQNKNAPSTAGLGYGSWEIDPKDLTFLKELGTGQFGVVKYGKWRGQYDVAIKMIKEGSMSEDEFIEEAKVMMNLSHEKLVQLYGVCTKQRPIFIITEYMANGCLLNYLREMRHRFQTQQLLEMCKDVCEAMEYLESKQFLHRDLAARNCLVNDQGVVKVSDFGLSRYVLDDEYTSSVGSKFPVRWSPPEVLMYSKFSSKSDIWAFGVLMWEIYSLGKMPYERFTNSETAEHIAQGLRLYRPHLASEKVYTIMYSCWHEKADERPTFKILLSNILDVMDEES

ERBB2 = target: T9, ERBB2 (Homo sapiens, UniProt P04626); assay: Cys-containing kinase family panel (EurofinsCerep); assay type: biochemical
T9 construct: EurofinsCerep (contract assay service)

MKK4 = target: T10, MKK4 (Mus musculus, UniProt P47809); assay: Eurofins Kinase Profiler panel; assay type: biochemical; conditions: read-out: % inhibition (1μM), DMSO control=100%, lower=stronger
T10 construct: purchased Eurofins KinaseProfiler (Eurofins Pharma Discovery Services UK, Dundee); JAK3 also ChemPartner
T10 sequence (P47809 2-397 limits assumed): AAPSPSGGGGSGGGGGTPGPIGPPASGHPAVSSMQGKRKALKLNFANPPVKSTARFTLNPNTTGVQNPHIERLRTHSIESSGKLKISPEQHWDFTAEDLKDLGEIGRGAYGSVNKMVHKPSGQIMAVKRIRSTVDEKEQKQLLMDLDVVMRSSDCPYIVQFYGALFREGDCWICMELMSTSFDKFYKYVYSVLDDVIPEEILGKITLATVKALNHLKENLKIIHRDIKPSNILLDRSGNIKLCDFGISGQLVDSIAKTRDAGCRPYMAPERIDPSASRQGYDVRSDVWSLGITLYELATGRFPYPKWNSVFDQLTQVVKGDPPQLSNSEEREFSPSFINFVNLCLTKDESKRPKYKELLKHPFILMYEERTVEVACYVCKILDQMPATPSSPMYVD

[4] = system: IL-6-induced STAT3 phosphorylation (JAK1); assay: IL-6-induced pSTAT3 in total lymphocytes in hPBMCs, flow cytometry; assay type: cell-based, human
MAPK1 = target: T11, MAPK1 (Homo sapiens, UniProt P27361); assay: Eurofins Kinase Profiler panel; assay type: biochemical; conditions: read-out: % inhibition (1μM), DMSO control=100%, lower=stronger
T11 construct: purchased Eurofins KinaseProfiler (Eurofins Pharma Discovery Services UK, Dundee); JAK3 also ChemPartner
T11 sequence (P27361 whole entry): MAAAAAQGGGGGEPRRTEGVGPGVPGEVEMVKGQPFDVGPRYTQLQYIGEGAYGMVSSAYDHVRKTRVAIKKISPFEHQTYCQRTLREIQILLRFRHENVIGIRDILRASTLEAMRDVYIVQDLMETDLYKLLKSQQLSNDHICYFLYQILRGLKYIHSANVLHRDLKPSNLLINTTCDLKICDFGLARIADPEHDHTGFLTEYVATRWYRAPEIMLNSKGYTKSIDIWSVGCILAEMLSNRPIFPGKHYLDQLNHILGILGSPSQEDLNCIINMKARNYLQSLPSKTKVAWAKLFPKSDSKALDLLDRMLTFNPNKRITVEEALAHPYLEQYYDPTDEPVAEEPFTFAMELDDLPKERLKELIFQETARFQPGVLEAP

Lyn = target: T12, Lyn (Homo sapiens, UniProt P07948); assay: Eurofins Kinase Profiler panel; assay type: biochemical; conditions: read-out: % inhibition (1μM), DMSO control=100%, lower=stronger
T12 construct: purchased Eurofins KinaseProfiler (Eurofins Pharma Discovery Services UK, Dundee); JAK3 also ChemPartner
T12 sequence (P07948 whole entry): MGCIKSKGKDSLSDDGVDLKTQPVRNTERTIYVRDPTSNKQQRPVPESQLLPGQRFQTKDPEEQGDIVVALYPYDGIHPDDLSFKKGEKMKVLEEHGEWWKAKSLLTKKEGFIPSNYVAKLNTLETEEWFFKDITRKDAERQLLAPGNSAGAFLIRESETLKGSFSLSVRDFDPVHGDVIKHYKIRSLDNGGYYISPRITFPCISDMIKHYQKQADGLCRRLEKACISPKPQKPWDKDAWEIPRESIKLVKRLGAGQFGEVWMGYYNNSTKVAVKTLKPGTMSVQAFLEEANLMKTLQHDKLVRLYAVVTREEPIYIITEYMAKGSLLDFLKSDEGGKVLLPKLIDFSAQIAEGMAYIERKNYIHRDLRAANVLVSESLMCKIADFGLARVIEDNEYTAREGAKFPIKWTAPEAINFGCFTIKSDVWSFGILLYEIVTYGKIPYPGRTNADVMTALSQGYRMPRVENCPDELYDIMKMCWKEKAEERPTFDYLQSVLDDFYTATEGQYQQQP

[5] = system: other kinases of the conserved cysteine panel (BMX, BTK, ITK, TXK, TEC, BLK, EGFR, ERBB4, ERBB2); assay: Cys-containing kinase family panel, kinases other than JAK3 taken together; assay type: biochemical; conditions: 1 µM
Excerpt: The assay protocol guides are commercially available from ChemPartner.

[6] = Pharmacokinetics in Sprague Dawley rats; assay type: in vivo
[7] = both sexes, Sprague Dawley, rat, iv 5.0 mg/kg, plasma
[8] = both sexes, Sprague Dawley, rat, plasma, iv 5.0 mg/kg
[9] = both sexes, Sprague Dawley, rat, plasma, po 10 mg/kg
[10] = both sexes, Sprague Dawley, rat, po 10 mg/kg, plasma

C=CC(=O)N[C@@H]1CCCN(c2ncnc3[nH]ccc23)C1 [RB1]
activity at 1 µM (IKKε): 97% | activity at 1 µM (Fyn): 97% | inhibition at 1 µM (BLK): 8.35% | active JAK3 over time after preincubation (JAK3 [1]): no active JAK3 was detected | IC50 ([2]; THP-1, read-out: IC50 (nM) JAK1): > 50000 nM | IC50 ([2]; THP-1, read-out: IC50 (nM) JAK3): 53.1 nM | inhibition of JAK3 phosphorylation compared with JAK1/JAK2-mediated STATs phosphorylation ([2]; IL-4 cell-based assay in THP-1 cells): over 1000 folds | Selectivity JAK1/JAK3 ([2]; THP-1, IL-4, pSTAT6): > 1000 | selectivity for JAK3 activity over JAK1 or JAK2 ([2]; battery of cytokine-stimulated cell-based assays): > 100 fold | activity at 1 µM (FAK): 72% | activity at 1 µM (JNK1α1): 101% | activity at 1 µM (GCK): 80% | activity at 1 µM (JAK3 [3]): 0.9% | inhibition at 1 µM (BTK): -0.95% | inhibition at 1 µM (ERBB2): 2.85% | activity at 1 µM (MKK4): 114% | IC50 ([4]; Homo sapiens, Lymphocyte, hPBMC total lymphocytes, trigger IL-6, readout pSTAT3, JAK1): > 40 µM | Selectivity JAK1/JAK3 ([4]; hPBMC, IL-6 pSTAT3 over IL-2 pSTAT5): >400 fold | activity at 1 µM (MAPK1): 85% | activity at 1 µM (Lyn): 118% | inhibition of other kinases of the conserved cysteine panel [5]: less than 15% | AUC(0-inf) [6, 7]: 933 ng·h/mL | AUC(0-t) [6, 7]: 802 ng·h/mL | Cmax [6, 7]: 1090 ng/mL | Tmax [6, 8]: 0.08 h | clearance [6, 8]: 97.7 mL/min/kg | half-life [6, 8]: 14.6 h | bioavailability ([6]; both sexes, Sprague Dawley, rat, plasma, oral, 10 mg/kg, po 10 mg/kg vs iv 5.0 mg/kg, read-out: F (oral bioavailability)): 72.5% | Tmax [6, 9]: 0.25 h | half-life [6, 9]: 6.9 h | AUC(0-inf) [6, 10]: 1310 ng·h/mL | AUC(0-t) [6, 10]: 1160 ng·h/mL | Cmax [6, 10]: 309 ng/mL | V ([6]; iv 5.0 mg/kg): 98.04 L/kg | CL ([6]; po 10 mg/kg): 144 mL/min/kg | V ([6]; po 10 mg/kg): 77.33 L/kg | F (oral bioavailability) ([6]; po 10 mg/kg vs iv 5.0 mg/kg): 72.5%
